Reference: US9556115B2, “Sulfonamides for the prevention of diabetes” (Dompé S.P.A., priority 2009, dated 2017)

System: MLD-STZ-induced diabetes in male C57BL/6J mice
Assay: Diabetes induction after multiple low dose (MLD)-streptozotocin (STZ) injections
Format: in vivo, mouse
Details: for glycemic levels after development of diabetes vs control mice / time to develop the disease compared to controls: mice injected with STZ, summary statement
Description: Injection of susceptible mice strains with multiple low doses of (STZ) provokes a condition with clinical and histoimmunological features similar to human Type 1 diabetes mellitus (DM). It has been established that five daily doses of 40 mg/kg/day of STZ are required for delayed onset, sustained and progressive hyperglycemia and insulitis in male C57BL/6 mice.
This model was previously used to study the role of proinflammatory cytokines in the development of Type 1 diabetes. 12 male C57BL/6J mice received MLD-STZ treatment. STZ was injected i.p. at a dose of 40 mg/kg/day, for 5 consecutive days. Glucose concentrations in venous blood was measured every day starting from the first day of treatment. Mice with glycemia over 250 mg/dl on three consecutive tests were considered diabetic, with the first detection of hyperglycemia taken as the date of diabetes onset. The mice were monitored for up to 60 days post first STZ injection. Reparixin was administered by s.c. continuous infusion starting from day −1 up to day 7 after first STZ injection at a dose of 8 mg/h/kg.
Male C57BL/6J mice were injected i.p. with (ML)-streptozotocin (STZ) at a dose of 40 mg/kg/day, for 5 consecutive days. Glucose concentrations in venous blood were measured every day starting from the first day of treatment (day 0). Mice with glycaemia over 250 mg/dl on three consecutive tests were considered diabetic, with the first detection of hyperglycemia taken as the date of diabetes onset. The mice were followed for up to 60 days post first STZ injection. Meraxin was administered per os at a dose of 15 mg/kg for 7 or 14 days, starting from day −1 of first STZ injection.
In a second set of experiments, the treatment with Meraxin for 14 days was started +5 (n=4) days after the first STZ injection to mimic the clinical setting of diabetes onset.

Compound	diabetes onset (Meraxin for 14 days started day +5 after first STZ injection (up to day 19), n=4)	glycaemic levels vs vehicle-treated mice (Meraxin for 14 days started day +5 after first STZ injection, whole 2-month observation period)	median diabetes-free time (Meraxin per os 15 mg/kg for 7 days starting from day -1, n=8, p=0.67 vs ctrl)	median diabetes-free time (Meraxin per os 15 mg/kg for 14 days starting from day -1, n=8, p=0.016 vs ctrl)	glycemic levels after development of diabetes vs control mice	time to develop the disease compared to controls	glycaemia levels after diabetes development vs vehicle-treated group (Reparixin s.c. continuous infusion 8 mg/h/kg day -1 to day 7, whole two-month observation period)	median diabetes free time (Reparixin s.c. continuous infusion 8 mg/h/kg from day -1 up to day 7 after first STZ injection, n=8, p=0.026 vs ctrl) [days]
C[C@@H](C(=O)NS(C)(=O)=O)c1ccc(OS(=O)(=O)C(F)(F)F)cc1 [Meraxin, R(-)-2-[(4′-trifluoromethanesulfonyloxy)phenyl]propionyl-methanesulfonamide]	clearly prevented diabetes onset	constantly and significantly lower	13+2.8 days	29+16	significantly lower	more than double the time		
CC(C)Cc1ccc([C@@H](C)C(=O)NS(C)(=O)=O)cc1 [Reparixin, R(-)-2-[(4-isobutylphenyl)propionyl]-methanesulfonamide]					significantly lower	more than double the time	constantly and significantly lower	27 ± 15
